{"source": "patent US9545395B2", "about": "“Method and composition for enhancement of male erectile function” (priority 2008, dated 2017)", "tested_on": "male erectile function (penis)", "test": "Clinical observations and case reports (Patients A-G): erectile response of men after local or systemic application", "format": "in vivo, man", "conditions": "for persistence of improvements after the last injection: after last IGF1 injection", "key": {"[1]": {"conditions": "Patient C, severe erectile dysfunction, maximal doses, before treatment"}, "[2]": {"conditions": "Patient C, maximal oral doses with daily topical androgens"}, "[3]": {"conditions": "Patient D, maximal oral doses combined with intracavernosal injections, before local IGF1"}, "[4]": {"conditions": "Patient D, oral medication without intracavernosal injections, after local IGF1"}, "[5]": {"conditions": "Patient D, oral medications, baseline"}, "[6]": {"conditions": "Patient G, oral medication, baseline"}, "[7]": {"conditions": "Patient E, four weekly IGF1 injections plus 2.5% testosterone cream"}}, "data": [{"compound": "CCCc1nn(C)c2c(=O)[nH]c(-c3cc(S(=O)(=O)N4CCN(C)CC4)ccc3OCC)nc12", "note": "[Viagra]", "values": [{"measurement": "erectile response", "setting": "[1]", "value": "not having any erections"}, {"measurement": "erectile response", "setting": "[2]", "value": "still could not function"}, {"measurement": "erectile response", "setting": "[3]", "value": "frequently going soft during intercourse"}, {"measurement": "erectile response", "setting": "[4]", "value": "getting usable erections"}, {"measurement": "erectile response", "setting": "[5]", "value": "not responding"}, {"measurement": "erectile response", "setting": "[6]", "value": "not able function sexually"}]}, {"compound": "C[C@]12CC[C@H]3[C@@H](CCC4=CC(=O)CC[C@@]43C)[C@@H]1CC[C@@H]2O", "note": "[Testosterone]", "values": [{"measurement": "erectile function after about a month", "setting": "Patient B, 10 mg Testosterone + 6 mcg LR3 IGF1 + 6 mcg PGE1 IC, 2-3 times per week", "value": "able to have sexual intercourse without any medications"}, {"measurement": "erectile response", "setting": "Patient B, 10 mg Testosterone added to IC mixture of 6 mcg LR3 IGF1 plus 6 mcg PGE1, 2-3 times per week", "value": "dramatically harder and firmer erections"}]}, {"compound": "IGF1: IGF-1 (Somatomedin-C), full length protein of 70 amino acids in a single chain with three intramolecular disulfide bridges", "values": [{"measurement": "erectile response", "setting": "Patient C, 10-20 ug IGF-1 or 6-10 ug LR3 IGF1 sub-cutaneously plus topical 1% testosterone gel, 3-4 times per week, one month", "value": "erections dramatically improved"}, {"measurement": "reduction of intracavernosal medication dose", "setting": "Patient D, after penile and intracavernosal IGF1 (5-10 ug combined with intracavernosal injections)", "value": "over 50%"}, {"measurement": "erectile function", "setting": "Patient D, some of the daily 50-100 ug IGF1 injections applied intermittently into the penis", "value": "immediately experienced improved erectile function"}, {"measurement": "erectile response", "setting": "Patient D, systemic IGF1 50-100 ug/day subcutaneously in abdomen, with intracavernosal meds", "value": "not getting adequate erections"}, {"measurement": "persistence of improvements after the last injection", "setting": "Patient E", "value": "persisted for several weeks"}, {"measurement": "duration of erection after an intracavernosal injection", "setting": "[7]", "value": "over 40 minutes"}, {"measurement": "hardness of erection after an intracavernosal injection", "setting": "[7]", "value": "over 80%"}, {"measurement": "erectile function", "setting": "Patient E, four weekly subcutaneous IGF1 injections into penis shaft plus 2.5% testosterone cream twice daily", "value": "dramatically improved the patient's erectile function"}, {"measurement": "persistence of improvements after the last injection", "setting": "Patient G", "value": "persist for several weeks"}, {"measurement": "erectile function", "setting": "Patient G, twice weekly subcutaneous 25 ug IGF1 into penis shaft, after Dihydrotestosterone cream", "value": "immediately began experiencing firmer spontaneous erections"}, {"measurement": "time to functional erections without the need for PDE5's", "setting": "men relying on PDE5's, higher locally applied penile doses", "value": "1-2 weeks"}, {"measurement": "time after discontinuation until improvement noticeably started weakening", "setting": "men who had used only a couple of doses, essentially gone after a month", "value": "1-2 weeks"}, {"measurement": "erectile function", "setting": "men, 50-100 μg once per week sub-cutaneously or subdermally in the penis", "value": "dramatic improvement in their erectile function"}]}, {"compound": "CN1CC(=O)N2[C@H](c3ccc4c(c3)OCO4)c3[nH]c4ccccc4c3C[C@@H]2C1=O", "note": "[Cialis]", "values": [{"measurement": "erectile response", "setting": "[1]", "value": "not having any erections"}, {"measurement": "erectile response", "setting": "[2]", "value": "still could not function"}, {"measurement": "erectile response", "setting": "[3]", "value": "frequently going soft during intercourse"}, {"measurement": "erectile response", "setting": "[4]", "value": "getting usable erections"}, {"measurement": "erectile response", "setting": "[5]", "value": "not responding"}, {"measurement": "erectile response", "setting": "[6]", "value": "not able function sexually"}]}, {"compound": "CCCCC[C@H](O)/C=C/[C@H]1[C@H](O)CC(=O)[C@@H]1CCCCCCC(=O)O", "note": "[prostaglandin E1]", "values": [{"measurement": "erection firmness", "setting": "Patient A (person one), 1.5 ug prostaglandin E1 intracavernosally alone", "value": "70-75%"}, {"measurement": "erection firmness", "setting": "Patient B, venous leakage, 6 ug prostaglandin E1 intracavernosally alone", "value": 60, "unit": "%"}, {"measurement": "duration of erection", "setting": "Patient B, 6 ug prostaglandin E1 intracavernosally alone", "value": "about 30 mins"}, {"measurement": "erectile response", "setting": "Patient C, maximum doses of PGE1 40 ug/ml plus triple mix papavarine, atropine, phentolamine", "value": "unable to obtain a usable erection"}]}, {"compound": "Growth Hormone: Growth Hormone injections daily (Human Growth Hormone)", "values": [{"measurement": "erectile function", "setting": "Patient D, daily Growth Hormone injections, 1 year", "value": "did not report a significant improvement in their erectile function"}]}, {"compound": "CCCc1nc(C)c2c(=O)[nH]c(-c3cc(S(=O)(=O)N4CCN(CC)CC4)ccc3OCC)nn12", "note": "[Levitra]", "values": [{"measurement": "erectile response", "setting": "[1]", "value": "not having any erections"}, {"measurement": "erectile response", "setting": "[2]", "value": "still could not function"}, {"measurement": "erectile response", "setting": "[3]", "value": "frequently going soft during intercourse"}, {"measurement": "erectile response", "setting": "[4]", "value": "getting usable erections"}, {"measurement": "erectile response", "setting": "[5]", "value": "not responding"}, {"measurement": "erectile response", "setting": "[6]", "value": "not able function sexually"}]}]}
